Active and inactive are the calls of the source. How the calls were made is not given here.
Molecular target: Toxin B (TcdB) glycohydrolase, Clostridioides difficile 630
Assay: TcdB glycohydrolase inhibitors, dose response, biochemical, cherry-pick, plate reader (AID 720512)
Conditions: recombinant TcdB glycohydrolase activity; for activity change, negative = inhibition: at 19.5 µM (top of the series)

Structure (SMILES) | activity change, negative = inhibition | AC50
NNC(=O)CCc1nc2ccc(O)cc2[nH]1 | inactive | –
CC(=O)Oc1ccc(/C=N/NC(=O)CCSc2ccccc2)cc1 | – | > 39 µM (inactive)
CSc1nc(Cl)cc(Nc2ccc(O)cc2)n1 | inactive | –
COc1ccc(Cl)cc1NC(=O)Cn1c(NCCO)nc2ccccc21 | inactive | –
COCC(=O)N1CC[C@H]2[C@@H]1c1cc(-c3ccc(OC)cc3)ccc1N(C)[C@H]2CO | – | > 39 µM (inactive)
COc1cccc(C(CNc2ccc(S(=O)(=O)N3CCN(C)CC3)cc2[N+](=O)[O-])N(C)C)c1 (configuration not stated) | inactive | –
C[C@@H]1CN([C@H](C)CO)C(=O)c2cccc(N(C)C)c2O[C@@H]1CN(C)C(=O)Nc1ccc(C(F)(F)F)cc1 | inactive | –
Oc1ccc(CCc2ccccn2)cc1 | – | > 39 µM (inactive)
NC(=O)C1(Nc2ccc(-c3ccc(Br)cc3)cc2)CCCC1 | inactive | –
C/C(=N\Nc1ccc([N+](=O)[O-])cc1)c1cccc(N)c1 | inactive | –
CCCNC(=O)N1CC[C@@H]2[C@@H](CO)N(C)c3ccc(-c4ccccc4)cc3[C@@H]21 | – | > 39 µM (inactive)
COCCNc1cc(N)c([N+](=O)[O-])cc1[N+](=O)[O-] | inactive | –
COc1ccc(OCc2cc(-c3ccc(Cl)cc3)no2)cc1 | inactive | –
COc1cc(NC(=O)CSc2nc3[nH]ncc3c(=O)n2-c2ccccc2C)cc(OC)c1OC | inactive | –
O=C(N/N=C/c1ccccn1)c1ccc([N+](=O)[O-])cc1Cl | inactive | –
CC(C)CN1CCN(CC#Cc2ccccc2)CC1CCO (configuration not stated) | inactive | –
O=C(CN1C(=O)CCC1=O)NNc1ccc2ccccc2c1 | inactive | –
NC(=O)CC(NC(=O)c1ccccc1)c1ccc(NCCc2ccc(F)cc2)c([N+](=O)[O-])c1 (configuration not stated) | inactive | –
Cc1nc2ccccc2nc1OCC(=O)Nc1ccc(F)cc1 | inactive | –

Structure (SMILES) | activity change, negative = inhibition | AC50
Cc1[nH]ccc2c1[nH]c1cc(=O)ccc12 | inactive | –
COc1ccc(NC(=O)C2CC(=O)N(c3ccccc3F)C2)cc1S(=O)(=O)N1CCCCC1 (configuration not stated) | inactive | –
COc1ccc(Cl)cc1NC(=O)CSc1nnc(-c2ccco2)o1 | inactive | –
CCOC(=O)c1ccc(NC(=O)Oc2cc(C)c(Cl)cc2C(C)C)cc1 | inactive | –
COc1cc(OC)cc(C(=O)NNC(=O)CN2C(=O)NC(C)(c3ccc(C)cc3)C2=O)c1 (configuration not stated) | inactive | –
CCOC(=O)c1ccc(-n2c(CCC(=O)O)ccc2-c2ccc(F)cc2)cc1 | inactive | –
COc1ccc(NC(=O)c2cc(S(=O)(=O)N3CCc4ccccc43)cn2C)cc1OC | inactive | –
CC(=O)c1cccc(-c2ccnc3c2CC(C(=O)NCc2ccccc2)O3)c1 (configuration not stated) | inactive | –
O=C(CCn1c(=O)oc2cc(Cl)ccc21)Nc1ccc(O)cc1 | – | > 20 µM (inactive)
Cc1nn(C2CC(O)C(O)C(CO)O2)c(=O)[nH]c1=O (configuration not stated) | inactive | –
S=C(NCCN1CCOCC1)Nc1ccc(Nc2ccccc2)cc1 | – | > 39 µM (inactive)
O=C(N[C@@H](Cc1c[nH]c2ccccc12)C(=O)O)C1CCN(S(=O)(=O)c2cccs2)CC1 | inactive | –
O=C(Cn1cc(COc2ccc(Cl)c(Cl)c2)nn1)NS(=O)(=O)c1ccccc1OC(F)(F)F | inactive | –
CCCc1cc(-c2n[nH]c(C(=O)OCC)c2-c2cscn2)c(O)cc1O | inactive | –
O=C(CSc1nc2cc(Cl)ccc2s1)c1ccco1 | inactive | –
CC1CN=C(Nc2cccc(S(=O)(=O)N(C)C)c2)S1 (configuration not stated) | inactive | –
COc1cccc2sc(NNC(=O)C3COc4ccccc4O3)nc12 (configuration not stated) | inactive | –
CC(OC(=O)c1cccnc1Cl)C(=O)NC1CCCCC1 (configuration not stated) | inactive | –
